Columns and labels:
[1] = tested on: Wnt pathway (Sp5-Luc reporter, TCF/LEF binding sites) in SW480 colon carcinoma cells; experiment: Screening assay for Wnt activity: Sp5-Luc reporter gene assay; assay type: cell-based, human; settings: Homo sapiens; Sp5-Luc reporter, SW480 cells, 36 to 48 hours;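 also: firefly luciferase luminescence read in stably transduced SW480 cells carrying the Sp5 promoter reporter with eight TCF/LEF sites, compounds given in 0.1% DMSO final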
Protocol: The screening assay for Wnt activity is described as follows.
Following incubation, 15 μl of BriteLite Plus luminescence reagent (Perkin Elmer) was added to each well of the 384-well assay plates. The plates were placed on an orbital shaker for 2 min and then luminescence was quantified using the Envision (Perkin Elmer) plate reader.

[2] = target: recombinant DYRK1A kinase (Homo sapiens (Human), UniProt Q13627); experiment: DYRK1A kinase assay (Ser/Thr 18 peptide Z-lyte FRET); assay type: biochemical; settings: 30 μM ATP, 1 h room temperature;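 also: Read-out is the coumarin to fluorescein emission ratio, referenced to unphosphorylated (0%) and phosphorylated (100%) Ser/Thr 18 peptide controls, values from dose-response curves by non-linear regression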
recombinant GSK3β kinase = recombinant GSK3β kinase (Homo sapiens (Human), UniProt P49841); experiment: GSK3β kinase assay (Ser/Thr 09 peptide Z-lyte FRET); assay type: biochemical; settings: 46 μM ATP, 1 h room temperature;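 also: kinase activity read as coumarin to fluorescein emission ratio, 11-point threefold dilutions from 10 µM to 0.0003 µM in duplicate, unphosphorylated and phosphorylated peptide as 0% and 100% controls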
[3] = tested on: Tau phosphorylation at Ser396 (pSer396); experiment: Tau phosphorylation assay (pSer396 ELISA / western blot) in SH-SY5Y cells; assay type: cell-based, human; settings: Homo sapiens; SH-SY5Y cells, overnight (16-18 h) exposure; read-out: pSer396 Tau EC50;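 also: EC50 for reduction of Tau pSer396 in lysed cells, measured by colorimetric ELISA or chemiluminescent western blot, both using the same pSer396 antibody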
[4] = tested on: SW480 colon carcinoma cells; experiment: Cell viability assay (CellTiter-Glo); assay type: cell-based, human; settings: Homo sapiens; for EC50: 96 h, SW480 cells, CellTiter-Glo, four days incubation
[5] = tested on: α-smooth muscle actin (αSMA) positive LL29 cells; experiment: Inhibition of fibrotic process: αSMA in TGF-β1 treated primary human fibroblasts from IPF patients; assay type: cell-based; settings: Homo sapiens, Fibroblast; for EC50: 96 h, Table 8, LL29 fibroblasts from IPF patients, TGF-β1 20 ng/mL, 4 days, dose-response 10 μM to 0.94 nM; for inhibition at 10 µM: read-out: percent value in parentheses beside EC50 >10 μM;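 as to all read-outs here: controls were TGF-β1 stimulated wells with DMSO vehicle (positive) and cells given DMSO alone (negative), cultured in F12 medium with 1% fetal bovine serum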
IL-6 = IL-6 inhibition in LPS-stimulated human peripheral blood mononuclear cells (HTRF); assay type: cell-based; settings: Homo sapiens, PBMC; for EC50: Table 9, huPBMCs, LPS 50 ng/mL, 22 hours, dose-response starting from 10 μM;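 as to all read-outs here: IL-6 detected by HTRF with an XL665- and Cryptate-labelled anti-IL-6 antibody pair, samples run in duplicate, EC50 obtained from a four-parameter Levenberg-Marquardt curve fit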
Protocol: After 22 hour incubation, a mixture of anti-IL6 XL665 and anti-IL-6 Cryptate diluted in reconstitution buffer (Catalog #62IL6PEC, Cisbio Inc., Bedford, Mass.) was added to each well. […] All samples were processed in duplicate. […] EC50 was determined using software generated by Dotmatics Limited (Windhill Bishops Stortford Herts, UK) using the Levenberg-Marquardt 4 parameter fitting procedure with finite different gradients.

Sequence of recombinant GSK3β kinase (P49841 whole entry): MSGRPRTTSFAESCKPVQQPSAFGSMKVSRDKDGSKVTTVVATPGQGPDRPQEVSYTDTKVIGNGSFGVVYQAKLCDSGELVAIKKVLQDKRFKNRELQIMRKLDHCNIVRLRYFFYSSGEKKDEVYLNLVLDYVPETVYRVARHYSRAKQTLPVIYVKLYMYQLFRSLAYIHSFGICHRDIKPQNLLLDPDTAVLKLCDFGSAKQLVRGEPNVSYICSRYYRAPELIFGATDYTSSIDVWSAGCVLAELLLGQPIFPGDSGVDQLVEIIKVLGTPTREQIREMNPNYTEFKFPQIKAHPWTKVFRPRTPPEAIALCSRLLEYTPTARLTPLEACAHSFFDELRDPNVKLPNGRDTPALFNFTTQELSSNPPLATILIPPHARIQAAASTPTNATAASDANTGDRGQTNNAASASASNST

Structure (SMILES)	EC50 [1]	EC50 [2]	EC50 (recombinant GSK3β kinase)	EC50 [3]	EC50 [4]	EC50 [5]	EC50 (IL-6)	inhibition at 10 µM [5]	inhibition at 10 µM ([4]; SW480, read-out: percent inhibition at 10 μM)	inhibition at 10 µM (IL-6; read-out: percent value in parentheses beside EC50 >10 μM)
CN1CCN(C(=O)Nc2cc3cc(-c4cnn(C)c4)ccc3cn2)CC1 [Compound 316, 4-Methyl-N-(6-(1-methyl-1H-pyrazol-4-yl)isoquinolin-3-yl)piperazine-1-carboxamide]	2.85 µM	0.0042 µM	0.509 µM	8.78 µM	2.34 µM	1.08 µM	0.395 µM			
C[C@@H](C(=O)Nc1cc2cc(-c3cnn(C)c3)ccc2cn1)N1CCCC1 [Compound 317, (S)—N-(6-(1-Methyl-1H-pyrazol-4-yl)isoquinolin-3-yl)-2-(pyrrolidin-1-yl) propanamide]	1.27 µM	0.037 µM	0.03 µM	0.2 µM	6.34 µM	0.174 µM	1.9 µM			
C[C@H](C(=O)Nc1cc2cc(-c3cnn(C)c3)ccc2cn1)N1CCCC1 [Compound 318, (R)—N-(6-(1-Methyl-1H-pyrazol-4-yl)isoquinolin-3-yl)-2-(pyrrolidin-1-yl) propanamide]	0.442 µM	0.0588 µM	0.012 µM	0.072 µM	0.94 µM	0.073 µM	1.03 µM			
Cn1cc(-c2ccc3cnc(NC(=O)[C@H]4CCCN4)cc3c2)cn1 [Compound 320, (R)—N-(6-(1-Methyl-1H-pyrazol-4-yl)isoquinolin-3-yl)pyrrolidine-2-carboxamide]	1.14 µM	0.0099 µM	0.01 µM	0.28 µM	1.78 µM	0.069 µM	1.26 µM			
Cn1cc(-c2ccc3cnc(NC(=O)C4CC5(C4)CN(C(=O)C(F)(F)F)C5)cc3c2)cn1 [Compound 325, N-(6-(1-Methyl-1H-pyrazol-4-yl)isoquinolin-3-yl)-2-(2,2,2-trifluoroacetyl)-2-azaspiro[3.3]heptane-6-carboxamide]	0.552 µM	0.0021 µM	0.003 µM	0.44 µM	0.526 µM	1.3 µM	0.357 µM			
Cn1cc(-c2ccc3cnc(NC(=O)C4CC5(C4)CN(CCF)C5)cc3c2)cn1 [Compound 326, 2-(2-Fluoroethyl)-N-(6-(1-methyl-1H-pyrazol-4-yl)isoquinolin-3-yl)-2-azaspiro[3.3]heptane-6-carboxamide]	0.438 µM	0.0029 µM	0.019 µM	0.574 µM	0.4 µM	> 10 µM	0.38 µM	47.2%		
Cn1cc(-c2ccc3cnc(NC(=O)[C@H]4CC[C@H](N(C)C)CC4)cc3c2)cn1 [Compound 327, trans-4-(Dimethylamino)-N-(6-(1-methyl-1H-pyrazol-4-yl)isoquinolin-3-yl)cyclohexane-1-carboxamide]	0.258 µM	0.0017 µM	0.066 µM	0.411 µM	1.58 µM	0.058 µM	0.947 µM			
Cn1cc(-c2ccc3cnc(NC(=O)C4CCN(C(=O)c5ccccc5)CC4)cc3c2)cn1 [Compound 328, 1-Benzoyl-N-(6-(1-methyl-1H-pyrazol-4-yl)isoquinolin-3-yl)piperidine-4-carboxamide]	0.804 µM	0.0019 µM	0.016 µM	0.231 µM	0.929 µM	> 10 µM	0.398 µM	34.5%		
CC(=O)N1CCC(C(=O)Nc2cc3cc(-c4cnn(C)c4)ccc3cn2)CC1 [Compound 329, 1-Acetyl-N-(6-(1-methyl-1H-pyrazol-4-yl)isoquinolin-3-yl)piperidine-4-carboxamide]	1.17 µM	0.0027 µM	0.029 µM	0.524 µM	4.12 µM	0.212 µM	1.16 µM			
CN1CCC(N2CCC(C(=O)Nc3cc4cc(-c5cnn(C)c5)ccc4cn3)CC2)CC1 [Compound 331, 1′-Methyl-N-(6-(1-methyl-1H-pyrazol-4-yl)isoquinolin-3-yl)-[1,4′-bipiperidine]-4-carboxamide]	2.99 µM	0.0018 µM	0.055 µM	0.311 µM	3.12 µM	0.096 µM	0.882 µM			
Cn1cc(-c2ccc3cnc(NC(=O)C4CCN(C5CCOCC5)CC4)cc3c2)cn1 [Compound 332, N-(6-(1-Methyl-1H-pyrazol-4-yl)isoquinolin-3-yl)-1-(tetrahydro-2H-pyran-4-yl)piperidine-4-carboxamide]	0.662 µM	0.0035 µM	0.039 µM	0.249 µM	1 µM	0.291 µM	1.07 µM			
Cn1cc(-c2ccc3cnc(NC(=O)[C@H]4CC[C@H](CO)CC4)cc3c2)cn1 [Compound 333, trans-4-(Hydroxymethyl)-N-(6-(1-methyl-1H-pyrazol-4-yl)isoquinolin-3-yl)cyclohexane-1-carboxamide]	0.384 µM	0.0012 µM	0.06 µM	1.1 µM	0.641 µM	0.061 µM	0.79 µM			
COC(=O)CN1CCC(C(=O)Nc2cc3cc(-c4cnn(C)c4)ccc3cn2)CC1 [Compound 334, Methyl 2-(4-((6-(1-methyl-1H-pyrazol-4-yl)isoquinolin-3-yl)carbamoyl)piperidin-1-yl)acetate]	0.787 µM	0.0016 µM	0.047 µM	0.82 µM	7.37 µM	0.063 µM	0.263 µM			
Cn1cc(-c2ccc3cnc(NC(=O)C4CCN(Cc5ccccc5)CC4)cc3c2)cn1 [Compound 335, 1-Benzyl-N-(6-(1-methyl-1H-pyrazol-4-yl)isoquinolin-3-yl)piperidine-4-carboxamide]	0.993 µM	0.0038 µM	0.071 µM	0.289 µM	1.12 µM	0.111 µM	0.401 µM			
Cn1cc(-c2ccc3cnc(NC(=O)C4CCN(C(=O)CN5CCCC5)CC4)cc3c2)cn1 [Compound 336, N-(6-(1-Methyl-1H-pyrazol-4-yl)isoquinolin-3-yl)-1-(2-(pyrrolidin-1-yl)acetyl)piperidine-4-carboxamide]	0.395 µM	0.0029 µM	0.083 µM	0.82 µM	0.51 µM	> 10 µM	0.569 µM	38.4%		
Cn1cc(-c2ccc3cnc(NC(=O)[C@@H]4CCCCN4)cc3c2)cn1 [Compound 340, (S)—N-(6-(1-Methyl-1H-pyrazol-4-yl)isoquinolin-3-yl)piperidine-2-carboxamide]	0.932 µM	0.0019 µM	0.257 µM	2.3 µM	2.23 µM	0.413 µM	0.562 µM			
C[C@H]1COCCN1CC(=O)Nc1cc2cc(-c3cnn(C)c3)ccc2cn1 [Compound 341, (S)—N-(6-(1-Methyl-1H-pyrazol-4-yl)isoquinolin-3-yl)-2-(3-methylmorpholino)acetamide]	4.1 µM	0.0056 µM	0.089 µM	1.6 µM	> 10 µM	2.37 µM	> 10 µM		33.9%	46.1%

— patent US10287267B2, “Isoquinolin-3-yl carboxamides and preparation and use thereof” (Samumed, LLC, priority 2016, dated 2019)
